Key:
PDE4B1 = molecular target: T1, PDE4B1 (Homo sapiens, UniProt Q07343); assay: Inhibition of PDE4B1 activity (SPA, [3H]cAMP); assay type: biochemical; conditions: recombinant PDE4B1 expressed in SF21 cells; 0.5 pM [sic] cAMP; values given as bins; read-out: PDE4B1 inhibitory values measured as −logIC50 (converted)
T1 construct: made in house; host or cells: SF21 insect cells (baculovirus; pCR-Bac vector)
Procedure: The PDE4B1 (GB no. L20966) was a gift of Prof. M. Conti (Stanford University, USA). It was amplified from the original plasmid (pCMV5) via PCR with primers Rb18 (5′-[…]-3′) and Rb10 (5′-[…]-3′) and cloned into the pCR-Bac vector (Invitrogen, Groningen, NL).
The recombinant baculovirus was prepared by means of homologous recombination in SF9 insect cells. The expression plasmids were cotransfected with Baculo-Gold DNA (Pharmingen, Hamburg) using a standard protocol (Pharmingen, Hamburg). Wt virus-free recombinant virus supernatants were selected using plaque assay methods. After that, high-titre virus supernatants were prepared by amplifying 3 times. PDE4B1 was expressed in SF21 cells by infecting 2×10^6 cells/ml with an MOI (multiplicity of infection) between 1 and 10 in the serum-free medium Insect Express Sf9-S2 (PAA, Pasching, Austria). The cells were cultured at 28° C. for 48-72 hours, after which they were pelleted for 5-10 min at 1000×g and 4° C.
The SF21 insect cells were resuspended, at a concentration of approx. 10^7 cells/ml, in ice-cold (4° C.) homogenization buffer (20 mM Tris, pH 8.2, containing the following additions: 140 mM NaCl, 3.8 mM KCl, 1 mM EGTA, 1 mM MgCl2, 10 mM e-mercaptoethanol, 2 mM benzamidine, 0.4 mM Pefablock, 10 pM leupeptin, 10 pM pepstatin A, 5 pM trypsin inhibitor) and disrupted by ultrasonication. The homogenate was then centrifuged for 10 min at 1000, g and the supernatant was stored at −80° C. until subsequent use (see below). The protein content was determined by the Bradford method (BioRad, Munich) using BSA as the standard.
PDEB1 activities were measured in a 96-well platform using SPA (scintillation proximity assay) yttrium silicate beads (RPNQ1050 from GE Healthcare). In a first step the PDE activity operates hydrolysis of either [^3H] cAMP (substrate) into [^3H] 5′AMP. In a second step substrate and product are distinguished following addition of SPA yttrium silicate beads. Indeed, in the presence of zinc sulphate the linear [^3H] […] Close proximity of bound [^3H] […] The test volume is 100 pl and contains 20 mM Tris buffer (pH 7.4), 0.1 mg/ml of BSA, 5 mM Mg^2+, […] (including about 50,000 cpm of [3H]cAMP), 1 pl of the respective substance dilution in DMSO and sufficient recombinant PDE (1000, g supernatant, see above) to ensure that 10-20% of the cAMP is converted under the said experimental conditions. […] After a preincubation of 5 min at 37° C., the reaction is started by adding the substrate (cAMP) and the assays are incubated for a further 15 min; after that, they are stopped by adding SPA beads (50 pl). In accordance with the manufacturer's instructions, the SPA beads had previously been resuspended in water, but were then diluted 1:3 (v/v) in water; the diluted solution also contains 3 mM IBMX to ensure a complete PDE activity stop. After the beads have been sedimented (>30 min), the MTP's are analyzed in commercially available luminescence detection devices. The corresponding IC50 values of the compounds for the inhibition of PDE4B1 activity are determined from the concentration-effect curves by means of non-linear regression.

human PDE5 = molecular target: T2, human PDE5 (Homo sapiens, UniProt O76074); assay: Inhibition of PDE5 activity (SPA, [3H]cGMP, platelet lysate); assay type: biochemical; conditions: PDE5 from human platelet lysate; values given as bins; read-out: PDE5A inhibitory values measured as −logIC50 (converted)
T2 construct: from tissue; host or cells: human platelets from fresh donor blood (10,000 g supernatant of sonicated platelets)
Procedure: As a source for human PDE5, platelets are used. For that purpose, 150 ml fresh blood from human donors anticoagulated with citrate [final concentration 0.3% (w/v)] is centrifuged at 200 g for 10 min to obtain the so-called platelet-rich-plasma (PRP) as a supernatant. 1/10 volume of ACD solution (85 mM Na3-citrate, 111 mM D-glucose, 71 mM citric acid, pH 4.4) is added to 9/10 volume of PRP. After centrifugation (1,400 g, 10 min) the cell pellet is resuspended in 3 ml homogenization buffer (NaCl 140 mM, KCl 3.8 mM, EGTA (ethylene glycol tetraacetic acid) 1 mM, MgCl2 1 mM, Tris-HCl 20 mM, beta-mercaptoethanol 1 mM, pH 8.2) plus protease-inhibitor mix giving rise to the final concentrations of 0.5 mM Pefablock (Roche), 10 μM Leupeptin, 5 μM Trypsininhibitor, 2 mM Benzamidin and 10 μM Pepstatin A. The suspension is sonified and thereafter centrifuged for 15 min at 10,000 g. The resulting supernatant (platelet lysate) is used for enzymatic testings.
PDE5 activities were measured in a 96-well platform using SPA (scintillation proximity assay) yttrium silicate beads (RPNQ1050 from GE Healthcare). In a first step the PDE activity operates hydrolysis of either [^3H] cGMP (substrate) into [^3H] 5′GMP. In a second step substrate and product are distinguished following addition of SPA yttrium silicate beads. Indeed, in the presence of zinc sulphate the linear [^3H] […] Close proximity of bound [^3H] […] The test volume is 100 pl and contains 20 mM Tris buffer (pH 7.4), 0.1 mg of BSA (bovine serum albumin)/ml, 5 mM Mg^2+, 1 μM motapizone (PDE3 Inhibitor), 10 nM PDE2 inhibitor 2-(3,4-dimethoxybenzyl)-7-[(1R,2R)-2-hydroxy-1-(2-phenylethyl)propyl]-5-methylimidazo[5,1-f][1,2,4]triazin-4(3H)-one, […] (cyclic guanosine monophosphate) (including about 50,000 cpm of [3H]cGMP as a tracer), 1 pl of the respective compound dilution in dimethylsulfoxide (DMSO) and sufficient PDE5-containing platelet lysat (10,000, g supernatant, see above) to ensure that 10-20 wt % of the cGMP is converted under the said experimental conditions. […] After a preincubation of 5 min at 37° C., the reaction is started by adding the substrate (cGMP) and the assay is incubated for a further 15 min; after that, it is stopped by adding SPA beads (50 pl). In accordance with the manufacturer's instructions, the SPA beads had previously been resuspended in water, but are then diluted 1:3 (v/v) in water; the diluted solution also contains 3 mM […]3-isobutyl-1-methylxanthine (IBMX) to ensure a complete PDE activity stop. After the beads have been sedimented (>30 min), the MTP's are analyzed in commercially available luminescence detection devices. The corresponding IC50 values of the compounds for the inhibition of PDE activity are determined from the concentration-effect curves by means of non-linear regression.

T1 sequence (Q07343 whole entry): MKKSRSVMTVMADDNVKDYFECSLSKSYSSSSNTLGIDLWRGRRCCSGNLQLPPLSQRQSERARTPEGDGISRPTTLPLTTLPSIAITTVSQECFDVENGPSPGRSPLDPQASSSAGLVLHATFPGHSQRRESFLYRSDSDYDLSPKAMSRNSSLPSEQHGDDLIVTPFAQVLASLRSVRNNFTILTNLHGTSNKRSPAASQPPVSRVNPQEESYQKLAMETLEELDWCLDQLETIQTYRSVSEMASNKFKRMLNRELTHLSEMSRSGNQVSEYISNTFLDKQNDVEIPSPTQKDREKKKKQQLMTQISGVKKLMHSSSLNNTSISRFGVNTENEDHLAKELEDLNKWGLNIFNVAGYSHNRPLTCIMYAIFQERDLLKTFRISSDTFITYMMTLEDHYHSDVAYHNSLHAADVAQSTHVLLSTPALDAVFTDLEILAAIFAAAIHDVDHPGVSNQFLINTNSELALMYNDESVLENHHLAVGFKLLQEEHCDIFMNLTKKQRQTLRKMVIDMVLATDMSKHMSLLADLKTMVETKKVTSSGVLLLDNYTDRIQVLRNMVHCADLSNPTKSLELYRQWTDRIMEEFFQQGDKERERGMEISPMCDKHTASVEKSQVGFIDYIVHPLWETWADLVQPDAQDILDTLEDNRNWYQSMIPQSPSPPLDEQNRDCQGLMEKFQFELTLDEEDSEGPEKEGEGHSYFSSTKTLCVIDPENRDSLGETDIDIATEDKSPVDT

SMILES	IC50 (PDE4B1) [nM]	IC50 (human PDE5) [nM]
CCOc1cc2c(cc1OC)C(c1ccc(C(=O)N3CCC(n4c(=O)c5sc(-c6ccccc6)cc5n(Cc5nc(CCCOC)no5)c4=O)CC3)cc1)=N[C@@H]1CCSC[C@H]21 [Example 50, 3-[1-({4-[(4aR,10bR)-9-ethoxy-8-methoxy-3,4,4a,10b-tetrahydro-1H-thiopyrano[4,3-c]isoquinolin-6-yl]phenyl}carbonyl)piperidin-4-yl]-1-{[3-(3-methoxypropyl)-1,2,4-oxadiazol-5-yl]methyl}-6-phenylthieno[3,2-d]pyrimidine-2,4(1H,3H)-dione]	< 1	10 to 100
CCOc1cc2c(cc1OC)C(c1ccc(C(=O)N3CCC(n4c(=O)c5sc(-c6ccccc6)cc5n(Cc5cnn(CC)c5)c4=O)CC3)cc1)=N[C@@H]1CCSC[C@H]21 [Example 17, 3-[1-({4-[(4aR,10bR)-9-ethoxy-8-methoxy-3,4,4a,10b-tetrahydro-1H-thiopyrano[4,3-c]isoquinolin-6-yl]phenyl}carbonyl)piperidin-4-yl]-1-[(1-ethyl-1H-pyrazol-4-yl)methyl]-6-phenylthieno[3,2-d]pyrimidine-2,4(1H,3H)-dione]	1 to 10	> 100
CCOc1cc2c(cc1OC)C(c1ccc(C(=O)N3CCC(n4c(=O)c5sc(-c6ccccc6)cc5n(Cc5cnc(C)s5)c4=O)CC3)cc1)=N[C@@H]1CCSC[C@H]21 [Example 20, 3-[1-({4-[(4aR,10bR)-9-ethoxy-8-methoxy-3,4,4a,10b-tetrahydro-1H-thiopyrano[4,3-c]isoquinolin-6-yl]phenyl}carbonyl)piperidin-4-yl]-1-[(2-methyl-1,3-thiazol-5-yl)methyl]-6-phenylthieno[3,2-d]pyrimidine-2,4(1H,3H)-dione]	1 to 10	< 10
CCOc1cc2c(cc1OC)C(c1ccc(C(=O)N3CCC(n4c(=O)c5sc(-c6ccc(F)cc6OC)cc5n(Cc5nc(COC)no5)c4=O)CC3)cc1)=N[C@@H]1CCSC[C@H]21 [Example 44, 3-[1-({4-[(4aR,10bR)-9-ethoxy-8-methoxy-3,4,4a,10b-tetrahydro-1H-thiopyrano[4,3-c]isoquinolin-6-yl]phenyl}carbonyl)piperidin-4-yl]-6-(4-fluoro-2-methoxyphenyl)-1-{[3-(methoxymethyl)-1,2,4-oxadiazol-5-yl]methyl}thieno[3,2-d]pyrimidine-2,4(1H,3H)-dione]	1 to 10	< 10
CCOc1cc2c(cc1OC)C(c1cccc(C(=O)N3CCC(n4c(=O)c5sc(-c6cc(OC)ccc6OC)cc5n(Cc5nnn(CC)n5)c4=O)CC3)c1)=N[C@@H]1CCSC[C@H]21 [Example 37, 6-(2,5-dimethoxyphenyl)-3-[1-({3-[(4aR,10bR)-9-ethoxy-8-methoxy-3,4,4a,10b-tetrahydro-1H-thiopyrano[4,3-c]isoquinolin-6-yl]phenyl}carbonyl)piperidin-4-yl]-1-[(2-ethyl-2H-tetrazol-5-yl)methyl]thieno[3,2-d]pyrimidine-2,4(1H,3H)-dione]	> 10	< 10
CCOc1cc2c(cc1OC)C(c1ccc(C(=O)N3CCC(n4c(=O)c5sc(-c6ccccc6)cc5n(Cc5ccc(CC)s5)c4=O)CC3)cc1)=N[C@@H]1CCSC[C@H]21 [Example 55, 3-[1-({4-[(4aR,10bR)-9-ethoxy-8-methoxy-3,4,4a,10b-tetrahydro-1H-thiopyrano[4,3-c]isoquinolin-6-yl]phenyl}carbonyl)piperidin-4-yl]-1-[(5-ethylthiophen-2-yl)methyl]-6-phenylthieno[3,2-d]pyrimidine-2,4(1H,3H)-dione]	1 to 10	10 to 100
CCOc1cc2c(cc1OC)C(c1ccc(C(=O)N3CCC(n4c(=O)c5sc(-c6ccccc6)cc5n(Cc5csc(C)n5)c4=O)CC3)cc1)=N[C@@H]1CCSC[C@H]21 [Example 10, 3-[1-({4-[(4aR,10bR)-9-ethoxy-8-methoxy-3,4,4a,10b-tetrahydro-1H-thiopyrano[4,3-c]isoquinolin-6-yl]phenyl}carbonyl)piperidin-4-yl]-1-[(2-methyl-1,3-thiazol-4-yl)methyl]-6-phenylthieno[3,2-d]pyrimidine-2,4(1H,3H)-dione]	1 to 10	> 100
CCOc1cc2c(cc1OC)C(c1ccc(C(=O)N3CCC(n4c(=O)c5sc(-c6ccccc6)cc5n(Cc5nnn(CC)n5)c4=O)CC3)cc1)=N[C@@H]1CCS(=O)(=O)C[C@H]21 [Example 19, 3-[1-({4-[(4aR,10bR)-9-ethoxy-8-methoxy-2,2-dioxido-3,4,4a,10b-tetrahydro-1H-thiopyrano[4,3-c]isoquinolin-6-yl]phenyl}carbonyl)piperidin-4-yl]-1-[(2-ethyl-2H-tetrazol-5-yl)methyl]-6-phenylthieno[3,2-d]pyrimidine-2,4(1H,3H)-dione]	> 10	< 10
CCOc1cc2c(cc1OC)C(c1ccc(C(=O)N3CCC(n4c(=O)c5sc(-c6ccccc6)cc5n(Cc5nc(C)cs5)c4=O)CC3)cc1)=N[C@@H]1CCSC[C@H]21 [Example 13, 3-[1-({4-[(4aR,10bR)-9-ethoxy-8-methoxy-3,4,4a,10b-tetrahydro-1H-thiopyrano[4,3-c]isoquinolin-6-yl]phenyl}carbonyl)piperidin-4-yl]-1-[(4-methyl-1,3-thiazol-2-yl)methyl]-6-phenylthieno[3,2-d]pyrimidine-2,4(1H,3H)-dione]	1 to 10	> 100

Reference: patent US9018175B2 (Takeda GmbH, priority 2009, dated 2015)
